Molecular target: T1, N-terminal 6His-tagged ROCK2 catalytic domain 11-552 (Homo sapiens, UniProt O75116)
T1 construct: N-terminal 6His-tagged ROCK2 catalytic domain 11-552; 6His (N); purchased Dundee University, UK; host or cells: baculovirus expression system
Experiment: ROCK2 binding activity: ROCK2 inhibition, ADP-Glo Kinase Assay
Assay type: biochemical
Conditions: 1.25 nM ROCK2, 100 μM long S6 peptide, 20 μM ATP; 1 hour pre-incubation; read-out: ADP-Glo kinase activity assay ROCK2 Category
Method in brief: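 1.25 nM baculovirus-expressed ROCK2 pre-incubated 1 h with compound (1% DMSO), then 100 μM long S6 peptide and 20 μM ATP added for 1 h; 50 mM HEPES pH 7.5, 10 mM Mg acetate, 1 mM DTT. ADP-Glo luminescence; IC50 from four-parameter logistic fit.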

T1 sequence (O75116 11-552): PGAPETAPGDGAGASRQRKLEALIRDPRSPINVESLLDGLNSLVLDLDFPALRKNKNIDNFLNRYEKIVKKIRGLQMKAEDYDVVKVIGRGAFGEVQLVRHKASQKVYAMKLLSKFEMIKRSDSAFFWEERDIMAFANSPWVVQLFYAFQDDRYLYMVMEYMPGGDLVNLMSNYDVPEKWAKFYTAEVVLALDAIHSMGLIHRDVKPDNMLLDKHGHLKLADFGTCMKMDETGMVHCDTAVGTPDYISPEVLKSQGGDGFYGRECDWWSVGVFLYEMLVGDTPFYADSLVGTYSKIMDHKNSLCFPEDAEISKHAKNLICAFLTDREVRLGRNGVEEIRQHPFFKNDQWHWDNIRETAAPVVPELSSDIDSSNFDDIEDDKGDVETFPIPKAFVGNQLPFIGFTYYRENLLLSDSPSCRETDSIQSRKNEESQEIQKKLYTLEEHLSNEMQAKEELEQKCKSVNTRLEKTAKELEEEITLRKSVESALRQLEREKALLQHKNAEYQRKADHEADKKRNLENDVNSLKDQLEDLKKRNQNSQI

Row | IC50 [nM] | SMILES
1 | < 300 | CC(C)NC(=O)COc1ccc(-c2nc(Nc3ccc4[nH]ncc4c3)n(C)n2)cc1Cl [Example 250, 2-[2-chloro-4-[5-(1H-indazol-5-ylamino)-1-methyl-1,2,4-triazol-3-yl]phenoxy]-N-isopropyl-acetamide]
2 | < 300 | CCNC(=O)c1ccc(-c2nc(Nc3ccc4[nH]ncc4c3C3CC3)n(C)n2)cc1 [Example 251, 4-[5-[(4-cyclopropyl-1H-indazol-5-yl)amino]-1-methyl-1,2,4-triazol-3-yl]-N-ethyl-benzamide]
3 | < 300 | CCc1c(Nc2nc(-c3ccc(C(=O)NC4CC4)c(OC)c3)nn2C)ccc2[nH]ncc12 [Example 252, N-cyclopropyl-4-[5-[(4-ethyl-1H-indazol-5-yl)amino]-1-methyl-1,2,4-triazol-3-yl]-2-methoxy-benzamide]
4 | < 300 | CCNC(=O)c1ccc(-c2nc(Nc3ccc4[nH]ncc4c3Cl)n(C)n2)cc1 [Example 253]
5 | 300 to 3000 | CCNC(=O)c1ccc(-c2nc(Nc3ccc4[nH]ncc4c3Cl)n(C)n2)cc1Cl [Example 254]
6 | 300 to 3000 | Cn1nc(-c2ccc(C(=O)NC3(C)CC3)c(Cl)c2)nc1Nc1ccc2[nH]ncc2c1Cl [Example 255]
7 | < 300 | Cn1nc(-c2ccc(C(=O)NC(C)(C)C)c(Cl)c2)nc1Nc1ccc2[nH]ncc2c1Cl [Example 256]
8 | < 300 | Cn1nc(-c2ccc(C(=O)NC(C)(C)C)cc2)nc1Nc1ccc2[nH]ncc2c1Cl [Example 257]
9 | < 300 | Cn1nc(-c2ccc(C(=O)NC3(C)CC3)cc2)nc1Nc1ccc2[nH]ncc2c1Cl [Example 258]
10 | 3000 to 10000 | CN1CC(NC(=O)c2ccc(-c3nc(Nc4ccc5[nH]ncc5c4Cl)n(C)n3)cc2Cl)C1 [Example 259]
11 | < 300 | Cn1nc(-c2ccc(C(=O)Nc3cccnc3)cc2)nc1Nc1ccc2[nH]ncc2c1Cl [Example 260]
12 | < 300 | Cn1nc(-c2ccc(C(=O)Nc3ccccc3)cc2)nc1Nc1ccc2[nH]ncc2c1Cl [Example 261]
13 | < 300 | CCNC(=O)c1ccc(-c2nc(Nc3ccc4[nH]ncc4c3Cl)n(C)n2)c(C)c1 [Example 262]
14 | 300 to 3000 | CN1CC(NC(=O)c2ccc(-c3nc(Nc4ccc5[nH]ncc5c4Cl)n(C)n3)cc2)C1 [Example 263]
15 | < 300 | COc1cc(-c2nc(Nc3ccc4[nH]ncc4c3Cl)n(C)n2)ccc1C(=O)NC1(C)CC1 [Example 264]
16 | < 300 | CCNC(=O)c1ccc(-c2nc(Nc3ccc4[nH]ncc4c3Cl)n(C)n2)c(Cl)c1 [Example 265]
17 | < 300 | Cn1nc(-c2ccc(C(=O)Nc3ccccn3)cc2)nc1Nc1ccc2[nH]ncc2c1Cl [Example 266]
18 | < 300 | COc1cc(-c2nc(Nc3ccc4[nH]ncc4c3Cl)n(C)n2)ccc1C(=O)NC1CN(C)C1 [Example 267]
19 | < 300 | Cn1nc(-c2cccc(C(=O)NCC(F)(F)F)c2)nc1Nc1ccc2[nH]ncc2c1Cl [Example 268]
20 | < 300 | Cn1nc(-c2cccc(C(=O)NC3CC3)c2)nc1Nc1ccc2[nH]ncc2c1Cl [Example 269]
21 | < 300 | CC(C)NC(=O)c1cccc(-c2nc(Nc3ccc4[nH]ncc4c3Cl)n(C)n2)c1 [Example 270]
22 | < 300 | COc1cc(-c2nc(Nc3cc(Cl)c4[nH]ncc4c3)n(C)n2)ccc1C(=O)NC(C)C [Example 271]
23 | < 300 | CCNC(=O)c1ccc(-c2nc(Nc3ccc4[nH]ncc4c3C3CC3)n(C)n2)cc1OC [Example 272]
24 | < 300 | COc1cc(-c2nc(Nc3ccc4[nH]ncc4c3C3CC3)n(C)n2)ccc1C(=O)NC(C)C [Example 273]

Row | IC50 [nM] | SMILES
25 | < 300 | COc1cc(-c2nc(Nc3ccc4[nH]ncc4c3C3CC3)n(C)n2)ccc1OCC(=O)NC(C)C [Example 274]
26 | 300 to 3000 | COc1cc(-c2nc(Nc3ccc4[nH]ncc4c3C3CC3)n(C)n2)ccc1C(=O)NC1CN(C)C1 [Example 275]
27 | < 300 | Cc1cc(-c2nc(Nc3ccc4[nH]ncc4c3C3CC3)n(C)n2)ccc1C(=O)NCC(F)(F)F [Example 276]
28 | < 300 | CCNC(=O)c1ccc(-c2nc(Nc3ccc4[nH]ncc4c3C3CC3)n(C)n2)cc1C [Example 277]
29 | < 300 | COc1cc(C(=O)NCC(F)(F)F)ccc1-c1nc(Nc2ccc3[nH]ncc3c2C2CC2)n(C)n1 [Example 278]
30 | < 300 | CCNC(=O)c1ccc(-c2nc(Nc3ccc4[nH]ncc4c3C3CC3)n(C)n2)c(OC)c1 [Example 279]
31 | < 300 | COc1cc(-c2nc(Nc3ccc4[nH]ncc4c3C3CC3)n(C)n2)ccc1C(=O)NCC(F)(F)F [Example 280]
32 | < 300 | Cn1nc(-c2ccc(C(=O)NC3(C(F)(F)F)CC3)cc2)nc1Nc1ccc2[nH]ncc2c1C1CC1 [Example 281]
33 | < 300 | CCC(C)NC(=O)c1ccc(-c2nc(Nc3ccc4[nH]ncc4c3C3CC3)n(C)n2)cc1 (stereo not shown) [Example 282]
34 | < 300 | Cn1nc(-c2ccc(C(=O)NCC3CC3)cc2)nc1Nc1ccc2[nH]ncc2c1C1CC1 [Example 283]
35 | < 300 | Cn1nc(-c2ccc(C(=O)NCC(F)(F)CO)cc2)nc1Nc1ccc2[nH]ncc2c1C1CC1 [Example 284]
36 | < 300 | Cn1nc(-c2ccc(C(=O)NCCC(F)(F)F)cc2)nc1Nc1ccc2[nH]ncc2c1C1CC1 [Example 285]
37 | < 300 | Cn1nc(-c2ccc(C(=O)NCC(C)(C)O)cc2)nc1Nc1ccc2[nH]ncc2c1C1CC1 [Example 286]
38 | < 300 | Cn1nc(-c2ccc(C3=NCC(C)(C)O3)cc2)nc1Nc1ccc2[nH]ncc2c1C1CC1 [Example 287]
39 | < 300 | Cn1nc(-c2ccc(C(=O)NC3CC(O)C3)cc2)nc1Nc1ccc2[nH]ncc2c1C1CC1 (stereo not shown) [Example 288]
40 | < 300 | Cn1nc(-c2ccc(C(=O)NCC(C)(C)C)cc2)nc1Nc1ccc2[nH]ncc2c1C1CC1 [Example 289]
41 | 3000 to 10000 | Cn1nc(-c2ccc(C(=O)NCC(C)(C)N)cc2)nc1Nc1ccc2[nH]ncc2c1C1CC1 [Example 291]
42 | < 300 | Cn1nc(-c2ccc(C(=O)NC3(CO)CC3)cc2)nc1Nc1ccc2[nH]ncc2c1C1CC1 [Example 293]
43 | < 300 | Cn1nc(-c2ccc(C(=O)NC3(C)CC3)cc2)nc1Nc1ccc2[nH]ncc2c1C1CC1 [Example 294]
44 | < 300 | CC(C)NC(=O)c1ccc(-c2nc(Nc3ccc4[nH]ncc4c3C3CC3)n(C)n2)cc1 [Example 295]
45 | 300 to 3000 | COC(=O)CNC(=O)c1ccc(-c2nc(Nc3ccc4[nH]ncc4c3C3CC3)n(C)n2)cc1 [Example 296]
46 | < 300 | Cn1nc(-c2ccc(C(=O)NC3CCC(F)(F)C3)cc2)nc1Nc1ccc2[nH]ncc2c1C1CC1 (stereo not shown) [Example 298]
47 | < 300 | Cn1nc(-c2ccc(C(=O)N[C@H]3C[C@@H]3F)cc2)nc1Nc1ccc2[nH]ncc2c1C1CC1 [Example 299]
48 | < 300 | Cn1cc(NC(=O)c2ccc(-c3nc(Nc4ccc5[nH]ncc5c4C4CC4)n(C)n3)cc2)cn1 [Example 300]

Row | IC50 [nM] | SMILES
49 | < 300 | COC(=O)[C@@H](NC(=O)c1ccc(-c2nc(Nc3ccc4[nH]ncc4c3C3CC3)n(C)n2)cc1)C(C)C [Example 301]
50 | < 300 | COC(=O)[C@H](CC(C)C)NC(=O)c1ccc(-c2nc(Nc3ccc4[nH]ncc4c3C3CC3)n(C)n2)cc1 [Example 302]
51 | < 300 | Cn1nc(-c2ccc(C(=O)NC3CCOC3)cc2)nc1Nc1ccc2[nH]ncc2c1C1CC1 (stereo not shown) [Example 303]
52 | < 300 | CC[C@@H](C)[C@H](NC(=O)c1ccc(-c2nc(Nc3ccc4[nH]ncc4c3C3CC3)n(C)n2)cc1)C(=O)OC [Example 304]
53 | < 300 | Cn1nc(-c2ccc(C(=O)NC3CCCCC3O)cc2)nc1Nc1ccc2[nH]ncc2c1C1CC1 (stereo not shown) [Example 305]
54 | 300 to 3000 | Cn1nc(-c2ccc(C(=O)NCC(N)=O)cc2)nc1Nc1ccc2[nH]ncc2c1C1CC1 [Example 306]
55 | 300 to 3000 | Cn1nc(-c2ccc(C(=O)N3CCNC(C(F)(F)F)C3)cc2)nc1Nc1ccc2[nH]ncc2c1C1CC1 (stereo not shown) [Example 307]
56 | < 300 | Cn1nc(-c2ccc(C(=O)NC3(CO)CCCC3)cc2)nc1Nc1ccc2[nH]ncc2c1C1CC1 [Example 308]
57 | < 300 | CC(C)C[C@@H](CO)NC(=O)c1ccc(-c2nc(Nc3ccc4[nH]ncc4c3C3CC3)n(C)n2)cc1 [Example 309]
58 | < 300 | CCC(CO)NC(=O)c1ccc(-c2nc(Nc3ccc4[nH]ncc4c3C3CC3)n(C)n2)cc1 (stereo not shown) [Example 310]
59 | < 300 | Cn1nc(-c2ccc(C(=O)NC(CO)C(F)(F)F)cc2)nc1Nc1ccc2[nH]ncc2c1C1CC1 (stereo not shown) [Example 311]
60 | < 300 | CC1CC1NC(=O)c1ccc(-c2nc(Nc3ccc4[nH]ncc4c3C3CC3)n(C)n2)cc1 (stereo not shown) [Example 312]
61 | < 300 | CCNC(=O)c1ccc(-c2nc(Nc3ccc4[nH]ncc4c3CC)n(C)n2)cc1OC [Example 313]
62 | < 300 | CCc1c(Nc2nc(-c3ccc(C(=O)NC(C)C)c(OC)c3)nn2C)ccc2[nH]ncc12 [Example 314]
63 | 300 to 3000 | CCc1c(Nc2nc(-c3ccc(C(=O)NC4CN(C)C4)c(OC)c3)nn2C)ccc2[nH]ncc12 [Example 315]
64 | < 300 | CCc1c(Nc2nc(-c3ccc(C(=O)NCC(F)(F)F)c(OC)c3)nn2C)ccc2[nH]ncc12 [Example 316]
65 | < 300 | CCc1c(Nc2nc(-c3ccc(C(=O)NCC(F)F)cc3)nn2C)ccc2[nH]ncc12 [Example 317]
66 | < 300 | CCc1c(Nc2nc(-c3ccc(C(=O)NC(C)C)cc3)nn2C)ccc2[nH]ncc12 [Example 318]
67 | < 300 | CCc1c(Nc2nc(-c3ccc(C(=O)NC4CCC(F)(F)C4)cc3)nn2C)ccc2[nH]ncc12 (stereo not shown) [Example 319]
68 | < 300 | CCc1c(Nc2nc(-c3ccc(C(=O)NCC(C)C)cc3)nn2C)ccc2[nH]ncc12 [Example 320]
69 | < 300 | CCc1c(Nc2nc(-c3ccc(C(=O)NCC(C)(C)C)cc3)nn2C)ccc2[nH]ncc12 [Example 321]
70 | < 300 | CCc1c(Nc2nc(-c3ccc(C(=O)NC(C)C(F)(F)F)cc3)nn2C)ccc2[nH]ncc12 (stereo not shown) [Example 322]

Reference: US11497751B2, “Modulators of Rho-associated protein kinase” (Redx Pharma PLC, priority 2018, dated 2022)
